ChEMBL document CHEMBL5550200, “Back-Pocket Optimization of 2-Aminopyrimidine-Based Macrocycles Leads to Potent EPHA2/GAK Kinase Inhibitors” (J Med Chem, 2024)
In brackets after ≈: the same amount, converted by molar mass.

How the values were obtained:
[1] = target: T1, Fibroblast growth factor receptor 1 (Homo sapiens, UniProt P11362); assay: Inhibition of full length FGFR1 (unknown origin) expressed in HEK293T cells using NanoBRET NanoGlo substrate incubated for 2 hrs in presence of K10 tracer by NanoBRET assay; assay type: cell-based
Huh-7 = assay: Cytotoxicity against human Huh-7 cells assessed as reduction in cell viability by alamar blue reagent based analysis; assay type: functional
[2] = target: Tyrosine-protein kinase ABL1 (Homo sapiens, UniProt P00519); assay: Inhibition of full length ABL1 (unknown origin) expressed in HEK293T cells using NanoBRET NanoGlo substrate incubated for 2 hrs in presence of K4 tracer by NanoBRET assay; assay type: cell-based
[3] = target: T2, Vascular endothelial growth factor receptor 1 (Homo sapiens, UniProt P17948); assay: Inhibition of full length FLT1 (unknown origin) expressed in HEK293T cells using NanoBRET NanoGlo substrate incubated for 2 hrs in presence of K9 tracer by NanoBRET assay; assay type: cell-based
T2 sequence (P17948 whole entry): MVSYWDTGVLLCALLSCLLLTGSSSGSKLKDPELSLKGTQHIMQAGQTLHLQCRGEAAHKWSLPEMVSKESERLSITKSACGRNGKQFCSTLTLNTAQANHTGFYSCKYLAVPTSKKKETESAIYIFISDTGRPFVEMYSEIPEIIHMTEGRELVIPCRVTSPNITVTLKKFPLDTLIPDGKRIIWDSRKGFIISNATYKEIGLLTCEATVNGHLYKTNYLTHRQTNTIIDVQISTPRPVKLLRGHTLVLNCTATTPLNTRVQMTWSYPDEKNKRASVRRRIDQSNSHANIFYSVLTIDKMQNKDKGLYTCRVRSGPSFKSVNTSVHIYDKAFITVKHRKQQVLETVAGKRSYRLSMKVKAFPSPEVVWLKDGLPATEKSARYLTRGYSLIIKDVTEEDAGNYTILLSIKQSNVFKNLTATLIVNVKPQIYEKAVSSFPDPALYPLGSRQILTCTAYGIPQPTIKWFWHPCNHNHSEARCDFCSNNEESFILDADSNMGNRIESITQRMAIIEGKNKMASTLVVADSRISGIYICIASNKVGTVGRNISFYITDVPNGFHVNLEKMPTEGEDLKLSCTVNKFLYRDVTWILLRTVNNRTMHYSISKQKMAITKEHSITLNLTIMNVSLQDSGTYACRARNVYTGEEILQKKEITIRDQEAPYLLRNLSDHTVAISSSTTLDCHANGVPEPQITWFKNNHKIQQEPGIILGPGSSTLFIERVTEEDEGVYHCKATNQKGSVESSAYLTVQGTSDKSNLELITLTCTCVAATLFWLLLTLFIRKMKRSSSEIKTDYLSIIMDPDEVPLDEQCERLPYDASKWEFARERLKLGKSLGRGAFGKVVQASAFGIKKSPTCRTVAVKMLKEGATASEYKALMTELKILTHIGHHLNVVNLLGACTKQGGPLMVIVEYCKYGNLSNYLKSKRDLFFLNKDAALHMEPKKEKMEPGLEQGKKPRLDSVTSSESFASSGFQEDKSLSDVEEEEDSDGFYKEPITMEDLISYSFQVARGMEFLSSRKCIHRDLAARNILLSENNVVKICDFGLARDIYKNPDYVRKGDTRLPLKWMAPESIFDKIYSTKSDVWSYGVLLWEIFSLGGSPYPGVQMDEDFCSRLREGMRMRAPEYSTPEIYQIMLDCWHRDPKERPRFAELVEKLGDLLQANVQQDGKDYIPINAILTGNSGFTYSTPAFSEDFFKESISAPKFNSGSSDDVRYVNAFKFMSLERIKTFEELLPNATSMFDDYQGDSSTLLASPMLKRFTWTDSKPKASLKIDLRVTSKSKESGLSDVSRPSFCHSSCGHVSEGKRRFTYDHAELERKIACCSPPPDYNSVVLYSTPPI

dengue virus type 2 = assay: Antiviral activity against DENV-2 New Guinea C infected in human Huh-7 cells assessed as reduction in virus induced cytopathic effect preincubated with cells for 1 hr followed by viral infection and measured after 45 to 48 hrs by luciferase assay; assay type: functional, organism-based; settings: for EC90: time 45-48 hrs
Ephrin type-A receptor 4 [4] = target: T3, Ephrin type-A receptor 4 (Homo sapiens, UniProt P54764); assay: Inhibition of full length EPHA4 (unknown origin) expressed in HEK293T cells using NanoBRET NanoGlo substrate incubated for 2 hrs in presence of K4 tracer by NanoBRET assay; assay type: cell-based
T3 sequence (P54764 whole entry): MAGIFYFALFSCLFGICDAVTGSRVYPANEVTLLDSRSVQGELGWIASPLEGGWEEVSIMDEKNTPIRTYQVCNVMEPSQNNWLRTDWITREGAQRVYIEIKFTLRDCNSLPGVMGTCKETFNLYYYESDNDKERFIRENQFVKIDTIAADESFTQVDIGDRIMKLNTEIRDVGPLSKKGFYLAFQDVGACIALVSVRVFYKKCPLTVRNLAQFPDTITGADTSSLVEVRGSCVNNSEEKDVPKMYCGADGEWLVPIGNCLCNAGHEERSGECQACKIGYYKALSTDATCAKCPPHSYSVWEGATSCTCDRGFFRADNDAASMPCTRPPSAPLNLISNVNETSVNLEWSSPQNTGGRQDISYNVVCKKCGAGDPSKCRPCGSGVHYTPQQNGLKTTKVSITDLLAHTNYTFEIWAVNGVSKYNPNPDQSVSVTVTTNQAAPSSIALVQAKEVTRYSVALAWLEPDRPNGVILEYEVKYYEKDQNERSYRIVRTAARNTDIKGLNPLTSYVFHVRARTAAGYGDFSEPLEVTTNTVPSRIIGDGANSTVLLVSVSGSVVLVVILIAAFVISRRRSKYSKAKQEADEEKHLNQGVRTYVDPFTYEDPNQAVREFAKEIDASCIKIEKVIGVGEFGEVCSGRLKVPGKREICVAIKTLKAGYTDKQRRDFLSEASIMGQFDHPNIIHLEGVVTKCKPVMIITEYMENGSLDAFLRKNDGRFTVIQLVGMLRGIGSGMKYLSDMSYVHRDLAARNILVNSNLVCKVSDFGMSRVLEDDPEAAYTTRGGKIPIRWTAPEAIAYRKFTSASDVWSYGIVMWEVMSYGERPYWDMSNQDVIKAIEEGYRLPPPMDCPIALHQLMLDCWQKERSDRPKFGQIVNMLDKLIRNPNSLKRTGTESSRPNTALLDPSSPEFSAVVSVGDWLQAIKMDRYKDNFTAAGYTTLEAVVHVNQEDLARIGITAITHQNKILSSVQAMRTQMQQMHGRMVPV

[5] = target: T4, Ephrin type-B receptor 3 (Homo sapiens) (UniProt P54753); assay: Induction of stabilization of recombinant EPHB3 (unknown origin) assessed as change in melting temperature by differential scanning fluorimetry assay
T4 sequence (whole entry): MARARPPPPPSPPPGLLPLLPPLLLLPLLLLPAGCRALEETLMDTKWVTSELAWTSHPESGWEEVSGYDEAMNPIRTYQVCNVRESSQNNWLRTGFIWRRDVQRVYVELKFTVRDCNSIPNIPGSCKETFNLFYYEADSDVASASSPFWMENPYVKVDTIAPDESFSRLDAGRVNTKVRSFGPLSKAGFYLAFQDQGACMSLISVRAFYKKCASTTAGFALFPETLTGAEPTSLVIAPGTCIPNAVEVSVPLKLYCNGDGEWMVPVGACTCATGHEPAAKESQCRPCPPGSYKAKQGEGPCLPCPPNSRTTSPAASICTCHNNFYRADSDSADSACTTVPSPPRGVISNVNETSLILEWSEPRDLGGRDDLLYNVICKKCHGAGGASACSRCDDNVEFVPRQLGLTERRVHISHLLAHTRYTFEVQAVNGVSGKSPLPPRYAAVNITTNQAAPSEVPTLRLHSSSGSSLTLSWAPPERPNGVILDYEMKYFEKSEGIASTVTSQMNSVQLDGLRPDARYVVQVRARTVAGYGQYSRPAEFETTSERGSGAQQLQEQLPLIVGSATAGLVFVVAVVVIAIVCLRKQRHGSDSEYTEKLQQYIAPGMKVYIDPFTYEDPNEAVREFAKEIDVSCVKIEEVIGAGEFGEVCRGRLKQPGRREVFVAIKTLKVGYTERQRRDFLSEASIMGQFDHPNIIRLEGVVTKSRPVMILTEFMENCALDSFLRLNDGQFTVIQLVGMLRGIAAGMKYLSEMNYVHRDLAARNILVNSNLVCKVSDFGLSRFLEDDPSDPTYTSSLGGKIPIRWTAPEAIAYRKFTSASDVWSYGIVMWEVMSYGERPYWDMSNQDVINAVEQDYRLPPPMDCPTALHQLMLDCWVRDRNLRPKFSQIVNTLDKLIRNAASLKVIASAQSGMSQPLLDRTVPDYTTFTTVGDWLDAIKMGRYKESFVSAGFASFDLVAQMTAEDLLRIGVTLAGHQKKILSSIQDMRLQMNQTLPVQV

[6] = target: T5, Ephrin type-B receptor 1 (Homo sapiens) (UniProt P54762); assay: Induction of stabilization of recombinant EPHB1 (unknown origin) assessed as change in melting temperature by differential scanning fluorimetry assay
T5 sequence (whole entry): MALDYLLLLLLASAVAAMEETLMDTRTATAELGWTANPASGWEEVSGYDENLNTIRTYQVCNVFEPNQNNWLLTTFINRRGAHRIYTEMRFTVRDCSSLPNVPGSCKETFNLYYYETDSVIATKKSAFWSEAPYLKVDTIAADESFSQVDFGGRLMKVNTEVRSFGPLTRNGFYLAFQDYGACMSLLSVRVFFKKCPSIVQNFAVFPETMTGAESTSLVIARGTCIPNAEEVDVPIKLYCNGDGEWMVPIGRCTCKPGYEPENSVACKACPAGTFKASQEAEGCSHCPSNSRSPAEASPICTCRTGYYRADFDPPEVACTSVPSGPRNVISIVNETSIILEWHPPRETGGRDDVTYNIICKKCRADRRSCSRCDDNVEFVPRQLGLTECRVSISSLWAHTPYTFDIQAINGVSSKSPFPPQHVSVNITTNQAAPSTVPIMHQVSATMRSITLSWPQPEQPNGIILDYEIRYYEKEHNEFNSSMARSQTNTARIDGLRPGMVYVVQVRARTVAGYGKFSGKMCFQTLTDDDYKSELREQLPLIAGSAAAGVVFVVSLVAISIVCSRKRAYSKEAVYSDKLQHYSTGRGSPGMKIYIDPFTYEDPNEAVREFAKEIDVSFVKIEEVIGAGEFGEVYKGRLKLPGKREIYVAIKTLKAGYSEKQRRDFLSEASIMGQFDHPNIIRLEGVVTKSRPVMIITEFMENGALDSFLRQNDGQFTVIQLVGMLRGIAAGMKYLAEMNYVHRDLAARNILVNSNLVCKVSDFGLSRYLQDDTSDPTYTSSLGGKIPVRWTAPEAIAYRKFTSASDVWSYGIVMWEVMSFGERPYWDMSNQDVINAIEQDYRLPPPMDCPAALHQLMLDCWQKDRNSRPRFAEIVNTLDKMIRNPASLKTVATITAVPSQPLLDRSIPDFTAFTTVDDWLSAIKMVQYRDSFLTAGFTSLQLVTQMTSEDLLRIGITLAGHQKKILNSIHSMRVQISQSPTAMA

[7] = target: Fibroblast growth factor receptor 2 (Homo sapiens) (UniProt P21802)
Description: Induction of stabilization of recombinant FGFR2 (unknown origin) assessed as change in melting temperature by differential scanning fluorimetry assay

Ephrin type-A receptor 4 [8] = target: T3, Ephrin type-A receptor 4; assay: Induction of stabilization of recombinant EPHA4 (unknown origin) assessed as change in melting temperature by differential scanning fluorimetry assay
[9] = target: Ephrin type-A receptor 5 (Homo sapiens) (UniProt P54756)
Sequence of Ephrin type-A receptor 5 (Homo sapiens) (P54756 whole entry): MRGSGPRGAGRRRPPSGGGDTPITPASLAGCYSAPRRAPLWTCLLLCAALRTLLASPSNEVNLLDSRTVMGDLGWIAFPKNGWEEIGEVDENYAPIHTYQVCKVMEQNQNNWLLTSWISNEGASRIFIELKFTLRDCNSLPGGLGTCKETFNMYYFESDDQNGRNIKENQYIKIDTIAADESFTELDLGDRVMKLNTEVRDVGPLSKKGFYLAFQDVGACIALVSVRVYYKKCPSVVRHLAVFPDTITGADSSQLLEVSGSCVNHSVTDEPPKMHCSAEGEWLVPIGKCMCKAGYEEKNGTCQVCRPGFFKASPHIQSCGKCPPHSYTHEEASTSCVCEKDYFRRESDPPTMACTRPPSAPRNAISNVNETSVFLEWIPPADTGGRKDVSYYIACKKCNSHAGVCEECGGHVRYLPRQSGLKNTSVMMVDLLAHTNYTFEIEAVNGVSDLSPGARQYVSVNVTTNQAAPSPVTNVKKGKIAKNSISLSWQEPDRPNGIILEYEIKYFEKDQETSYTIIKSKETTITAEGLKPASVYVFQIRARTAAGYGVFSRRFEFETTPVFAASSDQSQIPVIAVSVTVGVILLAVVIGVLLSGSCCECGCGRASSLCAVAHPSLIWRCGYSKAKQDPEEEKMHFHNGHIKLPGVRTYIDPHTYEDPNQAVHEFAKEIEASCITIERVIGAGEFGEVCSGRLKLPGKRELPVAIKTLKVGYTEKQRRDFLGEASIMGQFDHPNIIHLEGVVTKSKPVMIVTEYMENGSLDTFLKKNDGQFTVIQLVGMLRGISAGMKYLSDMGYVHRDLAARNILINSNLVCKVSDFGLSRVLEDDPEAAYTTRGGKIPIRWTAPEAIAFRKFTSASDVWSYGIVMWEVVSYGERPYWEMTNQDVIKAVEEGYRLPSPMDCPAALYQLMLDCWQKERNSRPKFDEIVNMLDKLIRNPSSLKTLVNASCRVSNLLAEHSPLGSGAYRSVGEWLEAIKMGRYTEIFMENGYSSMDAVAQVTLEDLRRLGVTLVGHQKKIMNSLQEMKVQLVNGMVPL
Description: Induction of stabilization of recombinant EPHA5 (unknown origin) assessed as change in melting temperature by differential scanning fluorimetry assay

[10] = target: Ephrin type-A receptor 7 (Homo sapiens) (UniProt Q15375); assay: Induction of stabilization of recombinant EPHA7 (unknown origin) assessed as change in melting temperature by differential scanning fluorimetry assay
Sequence of Ephrin type-A receptor 7 (Homo sapiens) (Q15375 28-998 limits assumed): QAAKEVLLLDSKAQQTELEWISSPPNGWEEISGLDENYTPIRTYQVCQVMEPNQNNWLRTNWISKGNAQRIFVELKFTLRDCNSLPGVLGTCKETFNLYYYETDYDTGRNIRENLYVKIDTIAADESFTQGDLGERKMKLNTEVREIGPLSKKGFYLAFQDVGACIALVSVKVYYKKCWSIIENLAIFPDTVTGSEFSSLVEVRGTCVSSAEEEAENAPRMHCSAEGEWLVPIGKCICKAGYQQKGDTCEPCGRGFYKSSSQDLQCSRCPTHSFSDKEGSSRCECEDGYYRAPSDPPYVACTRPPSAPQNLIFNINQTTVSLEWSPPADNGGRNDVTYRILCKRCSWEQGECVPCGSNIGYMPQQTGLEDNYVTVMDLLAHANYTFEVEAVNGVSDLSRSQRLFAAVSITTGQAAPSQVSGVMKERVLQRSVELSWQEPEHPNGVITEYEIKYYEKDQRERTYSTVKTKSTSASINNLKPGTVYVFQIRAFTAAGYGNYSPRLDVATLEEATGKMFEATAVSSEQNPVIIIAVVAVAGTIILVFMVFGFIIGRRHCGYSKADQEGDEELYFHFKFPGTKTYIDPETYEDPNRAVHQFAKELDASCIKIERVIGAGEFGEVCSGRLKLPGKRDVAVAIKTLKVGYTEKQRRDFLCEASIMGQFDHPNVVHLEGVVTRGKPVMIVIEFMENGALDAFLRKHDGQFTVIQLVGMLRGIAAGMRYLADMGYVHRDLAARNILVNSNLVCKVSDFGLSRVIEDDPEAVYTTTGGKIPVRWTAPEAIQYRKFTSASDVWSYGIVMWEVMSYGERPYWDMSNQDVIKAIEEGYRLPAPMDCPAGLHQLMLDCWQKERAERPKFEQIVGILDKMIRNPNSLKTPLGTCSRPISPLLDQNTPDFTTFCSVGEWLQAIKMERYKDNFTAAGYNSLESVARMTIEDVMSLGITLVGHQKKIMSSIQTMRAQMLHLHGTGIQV

[11] = target: T2, Vascular endothelial growth factor receptor 1; assay: Induction of stabilization of recombinant FLT1 (unknown origin) assessed as change in melting temperature by differential scanning fluorimetry assay
[12] = target: T1, Fibroblast growth factor receptor 1
Description: Induction of stabilization of recombinant FGFR1 (unknown origin) assessed as change in melting temperature by differential scanning fluorimetry assay

[13] = Metabolic stability in Sprague-Dawley rat liver microsomes assessed as half life at 10 uM preincubated for 5 mins followed by NADPH regenerating system measured upto 60 min by HPLC analysis; assay type: ADME, Microsome; settings: time < 65 min
Ephrin type-A receptor 2 [14] = target: T6, Ephrin type-A receptor 2 (Homo sapiens, UniProt P29317)
Description: Induction of stabilization of recombinant EPHA2 (D596 to G900 residues) (unknown origin) expressed in Escherichia coli rosetta BL21(D3)-R3-pRARE2 competent cells assessed as change in melting temperature by differential scanning fluorimetry assay

Ephrin type-A receptor 2 [15] = target: T6, Ephrin type-A receptor 2; remark: listed apart in the source
Description: Binding affinity to recombinant his tagged EPHA2 (D596 to G900 residues) (unknown origin) expressed in Escherichia coli rosetta BL21(D3)-R3-pRARE2 competent cells assessed as dissociation constant by surface plasmon resonance method

[16] = Solubility of the compound measured after 24 hrs by HPLC/MS analysis; assay type: physicochemical
[17] = Metabolic stability in Sprague-Dawley rat liver microsomes assessed as parent compound remaining at 10 uM measured after 60 min by HPLC analysis; assay type: ADME, Microsome; settings: read-out: Stability
[18] = target: T7, Cyclin-G-associated kinase (Homo sapiens) (UniProt O14976)
T7 sequence (whole entry): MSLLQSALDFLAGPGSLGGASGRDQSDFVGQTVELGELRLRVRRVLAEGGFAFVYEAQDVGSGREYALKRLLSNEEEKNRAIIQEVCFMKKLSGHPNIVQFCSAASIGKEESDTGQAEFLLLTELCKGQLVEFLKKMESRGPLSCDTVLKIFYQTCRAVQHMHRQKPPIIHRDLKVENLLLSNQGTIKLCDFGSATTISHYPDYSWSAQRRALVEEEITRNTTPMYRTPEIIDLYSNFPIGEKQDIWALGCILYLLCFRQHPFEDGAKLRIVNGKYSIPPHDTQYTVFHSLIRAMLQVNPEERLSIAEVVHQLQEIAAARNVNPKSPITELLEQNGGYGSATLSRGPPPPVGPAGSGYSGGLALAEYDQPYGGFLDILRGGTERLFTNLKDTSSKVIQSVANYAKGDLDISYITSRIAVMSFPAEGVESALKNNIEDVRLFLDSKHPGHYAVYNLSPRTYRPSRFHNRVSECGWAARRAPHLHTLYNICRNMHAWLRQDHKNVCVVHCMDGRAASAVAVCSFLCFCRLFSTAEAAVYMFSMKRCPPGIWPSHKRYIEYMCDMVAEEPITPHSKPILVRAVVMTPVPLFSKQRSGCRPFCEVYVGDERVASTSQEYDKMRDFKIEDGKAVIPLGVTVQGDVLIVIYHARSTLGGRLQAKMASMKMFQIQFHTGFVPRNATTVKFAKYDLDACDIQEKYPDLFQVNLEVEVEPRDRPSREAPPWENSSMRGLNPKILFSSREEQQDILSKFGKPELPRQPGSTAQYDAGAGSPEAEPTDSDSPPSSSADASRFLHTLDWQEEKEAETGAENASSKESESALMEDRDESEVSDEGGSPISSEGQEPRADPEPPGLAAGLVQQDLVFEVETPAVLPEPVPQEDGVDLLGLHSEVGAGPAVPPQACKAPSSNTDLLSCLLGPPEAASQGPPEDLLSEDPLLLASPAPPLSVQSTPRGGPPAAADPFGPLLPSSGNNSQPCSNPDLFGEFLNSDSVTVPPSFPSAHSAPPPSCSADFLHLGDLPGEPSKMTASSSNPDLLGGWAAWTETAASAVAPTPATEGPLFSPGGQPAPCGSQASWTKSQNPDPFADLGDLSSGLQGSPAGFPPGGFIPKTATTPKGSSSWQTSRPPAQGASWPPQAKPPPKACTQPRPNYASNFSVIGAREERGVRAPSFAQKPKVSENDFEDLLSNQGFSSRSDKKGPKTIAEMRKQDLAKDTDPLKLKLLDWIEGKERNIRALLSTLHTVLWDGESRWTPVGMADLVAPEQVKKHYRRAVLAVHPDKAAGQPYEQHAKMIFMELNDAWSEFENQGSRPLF
Description: Induction of stabilization of recombinant GAK (unknown origin) assessed as change in melting temperature by differential scanning fluorimetry assay

Row | EC50 (dengue virus type 2) | EC90 (dengue virus type 2) | deltaTm [5] | deltaTm [6] | deltaTm [7] | deltaTm (Ephrin type-A receptor 4 [8]) | deltaTm [9] | deltaTm [10] | deltaTm [11] | deltaTm [12] | SMILES | CC50 (Huh-7) | other results
1 | 6.5 µM | > 10 µM | – | – | – | – | – | – | – | – | O=C(Nc1ccccc1Cl)c1cnc2ccc(C3CCNCC3)cn12 | > 10 µM | EC50 [1]: > 50 µM; EC50 [2]: 49 µM; EC50 [3]: > 50 µM; EC50 (Ephrin type-A receptor 4 [4]): 0.048 µM
2 | > 10 µM | > 10 µM | 3.1 K | 2.6 K | 4.5 K | 4.5 K | 5.4 K | 1 K | 1.8 K | 2.5 K | COCCOc1ccc2cc1S(=O)(=O)NCCCNc1nc(ncc1-c1ccc(F)c(OC)c1)N2 | > 10 µM | –
3 | – | – | 1.6 K | 2.5 K | 3.6 K | 5.1 K | 5 K | 1.6 K | 2.4 K | 1.9 K | COc1cc(-c2cnc3nc2NCCCNS(=O)(=O)c2cc(ccc2Cl)N3)ccc1F | – | deltaTm (Ephrin type-A receptor 2 [14]): 6.3 K; deltaTm [18]: 8.1 K

The next lines start with the molecule.

Row | SMILES | EC50 (dengue virus type 2) | EC90 (dengue virus type 2) | deltaTm [5] | deltaTm [6] | deltaTm [7] | deltaTm (Ephrin type-A receptor 4 [8]) | deltaTm [9] | deltaTm [10] | deltaTm [11] | deltaTm [12] | CC50 (Huh-7) | other results
4 | COc1cc(-c2cnc3nc2NCCCNS(=O)(=O)c2cccc(c2)N3)ccc1F | > 10 µM | > 10 µM | 5.6 K | 4.3 K | 4.4 K | 3.6 K | 5.4 K | 0.3 K | 6.3 K | 3.3 K | > 10 µM | half-life at 10 µM [13]: 6.6 h
5 | COc1cc(-c2cnc3nc2NCCCNS(=O)(=O)c2cc(ccc2OC)N3)ccc1F | > 10 µM | > 10 µM | 1.6 K | 3.1 K | 3.4 K | 4.4 K | 4.7 K | 1 K | 1.3 K | 2 K | > 10 µM | –
6 | CCNc1nc(Nc2cccc(S(=O)(=O)NC)c2)ncc1-c1ccc(F)c(OC)c1 | – | – | – | – | – | – | – | – | – | – | – | deltaTm (Ephrin type-A receptor 2 [14]): 4.2 K; Kd (Ephrin type-A receptor 2 [15]): Not Active
7 | COc1cc(-c2cnc3nc2NCCCNS(=O)(=O)c2cccc(c2)N3)ccc1Br | 5.3 µM | 9.8 µM | 4 K | 2.8 K | 2.4 K | 3.2 K | 5 K | 0.1 K | 2.6 K | 1.8 K | > 10 µM | solubility at 24 h [16]: 2.24 µg/mL (≈ 4.57 µM); remaining at 1 h, 10 µM [17]: 87%; half-life at 10 µM [13]: 4.6 h
